Measured values taken from patent US4731473A, “Compounds useful in treating sickle cell anemia” (Merck & Co., Inc., priority 1986, dated 1988).
Structures can show the parent of a compound that is named as a salt.

Assays:
HbS = assay: Chromatographic separation: covalent binding to HbS
erythrocyte membranes = assay: Tests of transport across erythrocyte membranes; format: cell-based
sickle hemoglobin (HbS) = sickle hemoglobin (HbS) (Homo sapiens, UniProt P68871+P69905, E7V); assay: solubility or Csat assay: solubility of deoxygenated sickle hemoglobin (Hofrichter et al.); format: biochemical; conditions: low concentrations (5 mM); versus dichlorobenzyloxyacetic acid and p-bromobenzyloxyacetic acid
Text: One major assay for evaluating antisickling agents involves measuring their effect on increasing the concentration at which sickle hemoglobin forms a gel. This is called the solubility or Csat assay.
The solubility assay (Csat assay) measures the ability of a compound to increase solubility of sickle hemoglobin (HbS). […] The higher the ratio, the higher the activity of the compound.
In order to confirm the effectiveness of these compounds in reducing the effect of sickle cell anemia, tests were performed. The materials were tested according to the assay (Csat) developed by Hofrichter et al. (J. Hofrichter, P. D. Ross and W. A. Eaton, Proc. Natl. Acad. Sci., U.S.A. 73, 30-35, 1976). This assay involves deoxygenation of concentrated sickle hemoglobin with dithionite in the presence of different concentrations of the drugs being tested. Samples are then sealed in quartz epr tubes under anaerobic conditions and spun at about 150,000 g for about 21/2 hours at about 35° C. in an ultracentrifuge. This procedure pellets the polymerized HbS (sickle hemoglobin) to the bottom of the tubes and the supernatant (soluble HbS) is measured in the laboratory as the cyanmethemoglobulin derivative. […] Activity is reported as a ratio of the HbS solubility with the particular drug to HbS solubility with no drug, i.e. control. The higher the ratio the greater degree of activity of the drug. […]

In the case of `C=C(CC)C(=O)c1ccc(OCCCC(=O)O)c(Cl)c1Cl` [sodium salt of 4-[2,3-dichloro-4-(2-methylenebutyryl)phenoxy]butyric acid], the “covalent binding between HbS and the agent (in words)” value (HbS) is reported as “desired tight covalent binding between the HbS and the therapeutic agent had occurred”, the “ability to cross the red blood cell membrane and react with hemoglobin (in words)” value (erythrocyte membranes) is reported as “confirmed the ability of the agent to cross the red blood cell membrane and react with hemoglobin” and the “solubility ratio compared with other antisickling agents (in words)” value (sickle hemoglobin (HbS)) is reported as “exhibited a higher solubility ratio than other antisickling agents”.
